These results are taken from patent publication US20250368649A1, “TETRAHYDROPYRIDOPYRIMIDINE PAN-KRAS INHIBITORS” (Mirati Therapeutics, Inc., priority 2022, published 2025).

SMILES strings stand for the structures.

In assay [1] the target is KRas WT (Homo sapiens, UniProt P01116). Description: KRas binding assay (TR-FRET displacement), KRas WT. As to conditions: TR-FRET displacement. (In general: TR-FRET usually uses a lanthanide donor and a delayed reading to cut background.)
The target in assay [2] is KRas G12A (Homo sapiens, UniProt P01116, G12A). Type of assay: binding. As to conditions: TR-FRET displacement, read-out: Binding to KRas (IC50 nM) G12A.
The target in assay [3] is KRas G12C (Homo sapiens, UniProt P01116, G12C). Type of assay: binding. As to conditions: TR-FRET displacement, read-out: Binding to KRas (IC50 nM) G12C.
Assay [4] addresses KRas G12S (Homo sapiens, UniProt P01116, G12S). Type of assay: binding. The following applies: TR-FRET displacement, read-out: Binding to KRas (IC50 nM) G12S.
For assay [5], the target named is KRas G13D (Homo sapiens, UniProt P01116, G13D). Type of assay: binding. As to conditions: TR-FRET displacement, read-out: Binding to KRas (IC50 nM) G13D.
For assay [6], the target named is KRas Q61H (Homo sapiens, UniProt P01116, Q61H). Description: KRas binding assay (TR-FRET displacement), KRas Q61H. The following applies: TR-FRET displacement.
Assay [7] has as its system ASPC1 cells. Description: Inhibition of KRas-mediated phosphorylation of ERK (Cisbio HTRF pERK), ASPC1 cells. In kind it is cell-based. As to conditions: Homo sapiens, AsPC-1 cells; for IC50: ASPC1, 3 h, 3 hr compound incubation, Cisbio pERK HTRF; for inhibition at 0.1 µM: ASPC1, single point at 100 nM, 3 hrs compound incubation.
Assay [8] deals with H727 cells. Description: Inhibition of KRas-mediated phosphorylation of ERK (Cisbio HTRF pERK), H727 cells. In kind it is cell-based. The following applies: Homo sapiens; for IC50: NCI-H727, 3 h, 3 hr compound incubation, Cisbio pERK HTRF; for inhibition at 0.1 µM: NCI-H727, single point at 100 nM, 3 hrs compound incubation.
In assay [9] the target is KRas G12D (Homo sapiens, UniProt P01116, G12D). Description: biochemical. The following applies: Binding to KRas (IC50 nM) G12D, TR-FRET displacement, KRas G12D.
The target in assay [10] is KRas G12R (Homo sapiens, UniProt P01116, G12R). Description: biochemical. The following applies: Binding to KRas (IC50 nM) G12R, TR-FRET displacement, KRas G12R.
In assay [11] the target is KRas G12V (Homo sapiens, UniProt P01116, G12V). Description: biochemical. As to conditions: Binding to KRas (IC50 nM) G12V, TR-FRET displacement, KRas G12V.
Sequence of KRas G12V (P01116 1-169 isoform P01116-2 G12V): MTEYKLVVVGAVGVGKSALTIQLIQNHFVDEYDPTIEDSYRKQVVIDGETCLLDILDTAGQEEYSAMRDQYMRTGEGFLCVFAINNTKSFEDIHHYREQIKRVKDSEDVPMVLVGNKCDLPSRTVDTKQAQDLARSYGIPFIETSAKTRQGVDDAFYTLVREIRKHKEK

Sequence of KRas Q61H (P01116 1-169 isoform P01116-2 Q61H): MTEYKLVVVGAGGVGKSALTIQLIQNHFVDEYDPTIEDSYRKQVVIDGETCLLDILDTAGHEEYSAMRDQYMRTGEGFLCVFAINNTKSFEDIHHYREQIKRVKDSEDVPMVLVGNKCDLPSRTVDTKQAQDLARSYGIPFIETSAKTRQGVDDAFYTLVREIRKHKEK
Sequence of KRas G13D (P01116 1-169 isoform P01116-2 G13D): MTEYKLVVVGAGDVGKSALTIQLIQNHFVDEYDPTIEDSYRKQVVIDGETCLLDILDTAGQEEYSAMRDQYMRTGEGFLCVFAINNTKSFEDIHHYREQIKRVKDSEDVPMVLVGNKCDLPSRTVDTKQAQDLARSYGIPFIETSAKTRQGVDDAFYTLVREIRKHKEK
Sequence of KRas G12R (P01116 1-169 isoform P01116-2 G12R): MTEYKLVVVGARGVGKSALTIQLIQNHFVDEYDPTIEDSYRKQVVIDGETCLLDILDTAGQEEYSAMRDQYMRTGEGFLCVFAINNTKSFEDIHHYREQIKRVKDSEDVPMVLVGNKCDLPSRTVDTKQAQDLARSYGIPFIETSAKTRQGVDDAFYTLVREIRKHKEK
Sequence of KRas WT (P01116 1-169 isoform P01116-2): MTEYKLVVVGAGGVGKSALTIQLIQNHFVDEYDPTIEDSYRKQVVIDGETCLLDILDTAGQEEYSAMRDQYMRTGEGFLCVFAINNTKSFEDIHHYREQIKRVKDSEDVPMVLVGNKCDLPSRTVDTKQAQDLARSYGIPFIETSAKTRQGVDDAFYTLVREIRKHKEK
Sequence of KRas G12A (P01116 1-169 isoform P01116-2 G12A): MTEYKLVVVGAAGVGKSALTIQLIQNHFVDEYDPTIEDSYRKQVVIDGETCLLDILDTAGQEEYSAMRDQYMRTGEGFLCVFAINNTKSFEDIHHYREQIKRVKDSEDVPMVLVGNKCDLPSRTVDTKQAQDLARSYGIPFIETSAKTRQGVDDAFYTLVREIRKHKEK
Sequence of KRas G12S (P01116 1-169 isoform P01116-2 G12S): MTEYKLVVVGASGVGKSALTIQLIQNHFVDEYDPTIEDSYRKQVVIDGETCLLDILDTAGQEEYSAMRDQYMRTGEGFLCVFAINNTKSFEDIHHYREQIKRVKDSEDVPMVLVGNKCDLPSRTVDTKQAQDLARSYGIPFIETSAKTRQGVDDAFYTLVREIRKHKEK
Sequence of KRas G12C (P01116 1-169 isoform P01116-2 G12C): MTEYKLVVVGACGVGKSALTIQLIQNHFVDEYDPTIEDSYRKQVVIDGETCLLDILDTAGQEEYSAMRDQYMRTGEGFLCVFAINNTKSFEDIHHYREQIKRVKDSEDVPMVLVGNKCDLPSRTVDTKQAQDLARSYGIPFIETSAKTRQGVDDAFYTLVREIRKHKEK
Sequence of KRas G12D (P01116 1-169 isoform P01116-2 G12D): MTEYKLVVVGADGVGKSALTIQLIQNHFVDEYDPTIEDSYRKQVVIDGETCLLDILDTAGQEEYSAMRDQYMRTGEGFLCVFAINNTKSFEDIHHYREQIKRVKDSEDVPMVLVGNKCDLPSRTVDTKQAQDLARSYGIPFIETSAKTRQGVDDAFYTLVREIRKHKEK

With `O=C1CC2(CCCN(c3nc(OCC45CCCN4CCC5)nc4c3CCN(c3cc(O)cc(Cl)c3C3CC3)C4)C2)N1` (stereo not drawn) [Example 443, 6-(7-(3-chloro-2-cyclopropyl-5-hydroxyphenyl)-2-((tetrahydro-1H-pyrrolizin-7a(5H)-yl)methoxy)-5,6,7,8-tetrahydropyrido[3,4-d]pyrimidin-4-yl)-1,6-diazaspiro[3.5]nonan-2-one], the IC50 stood at 8 nM in assay [1]; 6 nM in assay [2]; 3 nM in assay [3]; 4 nM in [4]; 8 nM in assay [5]; 5 nM in assay [6]. For the same compound, the IC50 was > 10000 nM in assay [7]; 8580 nM in assay [8]; 6 nM in assay [9]; 4 nM in assay [10]; 3 nM in assay [11]. Moreover, the inhibition at 0.1 µM in [7] is -16%; in [8] it was -25%.

As for `Oc1cc(Cl)c(C2CC2)c(N2CCc3c(nc(OCC45CCCN4CCC5)nc3N3CC4CC(O)C(C4)C3)C2)c1` (stereo not drawn) [Example 444, 3-(7-(3-chloro-2-cyclopropyl-5-hydroxyphenyl)-2-((tetrahydro-1H-pyrrolizin-7a(5H)-yl)methoxy)-5,6,7,8-tetrahydropyrido[3,4-d]pyrimidin-4-yl)-3-azabicyclo[3.2.1]octan-6-ol], the concentration for half-maximal inhibition (IC50) in [1] turned out to be 50 nM; in assay [2], 52 nM; in assay [3], 64 nM; in assay [4], 42 nM; in assay [5], 53 nM; in assay [6], 87 nM. Also, the IC50 in assay [7] was 8870 nM; in assay [8], 5680 nM; in assay [9] it was 133 nM; in [10], 40 nM; in [11], 38 nM.

For `O=C1NC(=O)C2CN(c3nc(OCC45CCCN4CCC5)nc4c3CCN(c3cc(O)cc(Cl)c3C3CC3)C4)CC12` (stereo not drawn) [Example 445, 5-(7-(3-chloro-2-cyclopropyl-5-hydroxyphenyl)-2-((tetrahydro-1H-pyrrolizin-7a(5H)-yl)methoxy)-5,6,7,8-tetrahydropyrido[3,4-d]pyrimidin-4-yl)tetrahydropyrrolo[3,4-c]pyrrole-1,3(2H,3aH)-dione], the IC50 in assay [1] was determined as 7 nM; in [2], 8 nM; in assay [3], 7 nM; in assay [4], 3 nM; in assay [5] it was 7 nM; in assay [6], 9 nM. In addition, the half-inhibitory concentration (IC50) in [7] was > 10000 nM; in assay [8] it was > 10000 nM; in [9] it was 4 nM; in [10], 8 nM; in assay [11], 4 nM. In addition, the inhibition at 0.1 µM in assay [7] is -9%; in assay [8], 13%.

Take `Cc1cc2[nH]ncc2c(N2CCc3c(nc(OC[C@@]45CCCN4C[C@H](F)C5)nc3N3CCC[C@]4(C3)NC(=O)NC4=O)C2)c1C` [Example 450, (R)-7-(7-(5,6-dimethyl-1H-indazol-4-yl)-2-(((2R,7aS)-2-fluorohexahydro-1H-pyrrolizin-7a-yl)methoxy)-5,6,7,8-tetrahydropyrido[3,4-d]pyrimidin-4-yl)-1,3,7-triazaspiro[4.5m] odecane-2,4-dione]: the half-maximal inhibitory concentration (IC50) in [1] stood at 8 nM; in [2], 8 nM; in assay [3], 7 nM; in assay [4], 7 nM; in assay [5] it was 6 nM; in [6], 5 nM. For the same compound, the concentration for half-maximal inhibition (IC50) in assay [7] came to 3490 nM; in [8], 1270 nM; in assay [9] it was 5 nM; in [10] it was 3 nM; in assay [11], 3 nM.

Take `Cc1cc2[nH]ncc2c(N2CCc3c(nc(OCC45CCCN4CCC5)nc3N3CCCn4nc(C(=O)N(C)C)cc4C3)C2)c1C` [Example 451, 5-(7-(5,6-dimethyl-1H-indazol-4-yl)-2-((hexahydro-1H-pyrrolizin-7a-yl)methoxy)-5,6,7,8-tetrahydropyrido[3,4-d]pyrimidin-4-yl)-N,N-dimethyl-5,6,7,8-tetrahydro-4H-pyrazolo[1,5-a][1,4]diazepine-2-carboxamide]: the IC50 in [1] turned out to be 777 nM; in assay [2], 387 nM; in assay [3], 209 nM; in assay [4] it was 243 nM; in assay [5] it was 1160 nM; in assay [6], 1060 nM. For the same compound, the IC50 was > 10000 nM in assay [7]; > 10000 nM in assay [8]; 11 nM in assay [9]; 62 nM in assay [10]; 26 nM in assay [11].

Consider `Cc1cc2[nH]ncc2c(N2CCc3c(nc(OCC45CCCN4CCC5)nc3N3CCCC4(CNS(=O)(=O)N4)C3)C2)c1C` (stereo not drawn) [Example 452, 7-(7-(5,6-dimethyl-1H-indazol-4-yl)-2-((hexahydro-1H-pyrrolizin-7a-yl)methoxy)-5,6,7,8-tetrahydropyrido[3,4-d]pyrimidin-4-yl)-2-thia-1,3,7-triazaspiro[4.5]decane 2,2-dioxide], for which the IC50 in [1] worked out at 7 nM; in assay [2], 9 nM; in assay [3], 8 nM; in assay [4], 8 nM; in assay [5] it was 8 nM; in assay [6], 7 nM. Besides, the half-maximal inhibitory concentration (IC50) was 3000 nM in assay [7]; > 10000 nM in assay [8]; 4 nM in [9]; 9 nM in assay [10]; 6 nM in assay [11].

Turning to `Cc1cc2[nH]ncc2c(N2CCc3c(nc(OCC45CCCN4CCC5)nc3N3CCC[C@]4(C3)NC(=O)NC4=O)C2)c1C` [Example 455, (R)-7-(7-(5,6-dimethyl-1H-indazol-4-yl)-2-((hexahydro-1H-pyrrolizin-7a-yl)methoxy)-5,6,7,8-tetrahydropyrido[3,4-d]pyrimidin-4-yl)-1,3,7-triazaspiro[4.5]decane-2,4-dione], the IC50 in [1] was determined as 4 nM; in assay [2] it was 4 nM; in [3], 3 nM; in assay [4], 4 nM; in assay [5], 4 nM; in assay [6], 3 nM. For the same compound, the IC50 was > 10000 nM in assay [7]; > 10000 nM in [8]; 4 nM in assay [9]; < 2 nM in assay [10]; 2 nM in assay [11].

As for `Cc1cc2[nH]ncc2c(N2CCc3c(nc(OCC45CCCN4CCC5)nc3N3CCCC4(CC(=O)N4)C3)C2)c1C` (stereo not drawn) [Example 456, 6-(7-(5,6-dimethyl-1H-indazol-4-yl)-2-((hexahydro-1H-pyrrolizin-7a-yl)methoxy)-5,6,7,8-tetrahydropyrido[3,4-d]pyrimidin-4-yl)-1,6-diazaspiro[3.5]nonan-2-one], the IC50 in [1] is 53 nM; in assay [2], 35 nM; in assay [3], 32 nM; in [4], 33 nM; in [5], 59 nM; in assay [6], 48 nM. The half-maximal inhibitory concentration (IC50) in assay [7] was > 10000 nM; in [8] it was > 10000 nM; in [9] it was 38 nM; in assay [10], 17 nM; in assay [11], 18 nM.

Consider `Cc1cc2[nH]ncc2c(N2CCc3c(nc(OCC45CCCN4CCC5)nc3N3CC4CC(O)C(C4)C3)C2)c1C` (stereo not drawn) [Example 457, 3-(7-(5,6-dimethyl-1H-indazol-4-yl)-2-((hexahydro-1H-pyrrolizin-7a-yl)methoxy)-5,6,7,8-tetrahydropyrido[3,4-d]pyrimidin-4-yl)-3-azabicyclo[3.2.1]octan-6-ol], for which the IC50 in assay [1] came out at 1590 nM; in assay [2], 1250 nM; in [3] it was 1910 nM; in [4], 1270 nM; in assay [5], 1870 nM; in assay [6], 2190 nM. For the same compound, the IC50 was > 10000 nM in assay [7]; > 10000 nM in assay [8]; 3560 nM in assay [9]; 692 nM in [10]; 805 nM in [11].

For the compound `Cc1cc2[nH]ncc2c(N2CCc3c(nc(OCC45CCCN4CCC5)nc3N3CC4C(=O)NC(=O)C4C3)C2)c1C` (stereo not drawn) [Example 458, 5-(7-(5,6-dimethyl-1H-indazol-4-yl)-2-((hexahydro-1H-pyrrolizin-7a-yl)methoxy)-5,6,7,8-tetrahydropyrido[3,4-d]pyrimidin-4-yl)tetrahydropyrrolo[3,4-c]pyrrole-1,3(2H,3aH)-dione], the IC50 in assay [1] stood at 143 nM; in [2], 148 nM; in assay [3], 153 nM; in assay [4] it was 52 nM; in assay [5] it was 168 nM; in assay [6], 179 nM. For the same compound, the IC50 in assay [7] is > 10000 nM; in assay [8], > 10000 nM; in assay [9], 48 nM; in assay [10], 145 nM; in [11], 76 nM.

The IC50 is the concentration needed to halve the response being measured. What is called inhibition is the change of the read-out against control, counted positive when it falls.
